Laboratory results: patent US10201558B2, “Compositions of selenoorganic compounds and methods of use thereof” (Alltech, Inc., priority 2014, dated 2019)

Key:
[1] = system: Notch signaling molecules; experiment: Microarray expression profiles of 65 Notch signaling molecules in APP/PS1 mice; type: in vivo, mouse; conditions: microarray heatmap, 5 control and 6 Compound C treated APP/PS1 mice
Procedure: To further investigate potential toxic effects of compound on the Notch signaling, microarray analysis was performed. Expression of Notch signaling molecules in the brains of Compound C-treated APP/PS1 mice was analyzed. […] Brain tissues were collected and subjected to microarray analysis. The transcription profiles of 65 Notch receptor signaling (based GO search) related genes were pulled out from the original microarray datasets, and then subjected to unsupervised hierarchical clustering analysis based on arrays (animals) using GeneSpring 13.0 software (Agilent Technologies, Inc.), to generate the heatmap of these gene expression (see FIG. 19). In the heatmap, gene expression levels (normalized by Actb) were shown in color intensity that reflect the expression changes compared to mean value of each gene, where blue, red or yellow colors represent decreased, increased or no change in the level of expression intensity, respectively. The dendogram on the top reflects the extent of similarity of expression profiles between animals.

[2] = system: Aβ plaque deposits (Aβ1-42); experiment: IHC analysis of amyloid deposits in the brains of APP/PS1 mice; type: in vivo, mouse; conditions: diet with 1 ppm Se from Compound C, 6 to 12 months of age
Procedure: (§1) Male APPΔNLh/ΔNLh×PS1P246 L/246 L knock-in model mice of Alzheimer's disease (abbreviated APP/PS1) were genotyped using standard primers for human APP (Amyloid Precursor Protein) and human PS1 (PSEN1). These APP/PS1 mice starting at the age of 6 months, were fed either a control diet containing normal levels of selenium (0.3 ppm from plant and inorganic selenium salt sources) or an experimental diet containing Compound C (the control diet to which was added 1 ppm Se from Compound C) for 6 months.
(§2) At 12 months of age, the mice were euthanized and the brains quickly removed, the cerebellum isolated and the hemispheres snap-frozen in liquid nitrogen and then stored at −80° C. for further immunohistochemistry (IHC), protein and RNA analysis. All procedures conducted on these animal studies were pre-approved by the University of Kentucky IACUC committee.
Frozen brain tissues were sectioned using a Leica-CM1900 cryostat (Leica Microsystems Inc., Bannockburn, Ill.), as described previously (Zhang et al, 2008. Biochem Biophys Res Commun). These frozen brain sections were subjected to immunohistochemistry staining of Aβ plaques using a specific polyclonal antibody against Aβ1-42 (Abcam) and the Rabbit ImmunoCruz Staining System (Santa Cruz Biotechnology, Santa Cruz, Calif.) according to the manufacturer's protocol. […]

IMR-32 cells = experiment: Cell viability assay (CellTiter96 AQueous One, OD490); type: cell-based, human; conditions: 150 ppb, 72 hours
Procedure: Cell viability in cultured IMR-32 cells was determined using Promega's CellTiter96® AQueous One Solution Cell Proliferation Assay kits, according to the manufacturer's protocol and instructions. In brief, IMR-32 cells were seeded on 96-well clear plates (VWR) at a density of 2×10^4 cells/well, and treated with control or compounds of the present invention for 24 hours, 28 hours, and/or 72 hours.
The cultured cells were then incubated with AQueous One solution (100 ul/per well) at 37° C. for 1 hour. The absorbance at OD490 nm in each sample was determined by a Bio-Tek microplate reader. Cell viability in cultured cells were determined by the subtraction of OD490 nm in cultured cells with the OD490 nm in plain culture media without seeding of cells (control). Eight samples per each treatment were examined for the above analysis.
Cell viability assays were performed on cells after treatment with various compounds (150 ppb selenium compounds and equal dilution of their sulfur analog) for 24 hours, and 72 hours.

[3] = system: Zic1-5, Foxp2, Drd1a, Tac1, Sez6, Penk, Dlx5, Rarb, Meis2, Ddx5, Gpr88, Pde10a, Akap5, Isl1; experiment: QRT-PCR of Zic genes and brain development/neuronal function genes in APP/PS1 mouse brains; type: in vivo; conditions: Compound C diet vs control diet
Procedure: as §1, with “months. […]” for “months.”
Approximately 10 mg brain sample was homogenized with a Qiagen TissueRuptor (Qiagen, Valencia, Calif.) and total RNA was extracted using an RNeasy Mini kit (Qiagen), following the protocol recommended by the company. […] Integrity and purity of isolated RNA was assessed using a NanoDrop ND-1000 spectrophotometer (Thermo Scientific, Wilmington, Del.) and further confirmed with an Agilent 2100 Bioanalyzer System (Agilent Technologies, Santa Clara, Calif.).
RNA samples were subjected to real-time PCR analysis using the Applied-Bioscience's RT kit and predesigned Taqman probes (Invitrogen), as described previously (Lan et al EMBO J 2003). Three to six samples were analyzed in each group. […]

insoluble Aβ1-42 = experiment: ELISA of insoluble (FA-soluble) Aβ1-42 in the brains of APP/PS1 mice; type: in vivo, mouse; conditions: diet with 1 ppm Se from Compound C, 6 to 12 months of age, vs control mice
Procedure: as §1, §2
Frozen hemispheres of control- and Compound C-treated APP/PS1 mice were weighed and homogenized in PBS buffer. Insoluble Aβ fractions (formic acid (FA)-soluble fractions) were extracted from the homogenates using standard serial extraction protocols as described previously (Lovell et al, Free Radic Biol Med 2009; 46:1527-33) Insoluble Aβ1-42 levels (in the FA soluble fraction) were determined using standard sandwich ELISAs (Invitrogen), according to the manufacturer's procedure. […]

C[Se]C[C@H]1O[C@@H](n2cnc3c(N)ncnc32)C(O)C1O (stereo in doubt) [Compound C, 5′-deoxy-5′-methylselenoadenosine]
expression levels of Notch 1-4, RBPJ, Hey1, Hes1, Hey2 and other Notch signaling molecules [1]: did not have obvious change
Aβ plaque deposits in the brain cortex (IHC, Aβ1-42 staining) [2]: much fewer and/or weaker-staining
Aβ plaque deposits in the brain hippocampus (IHC, Aβ1-42 staining) [2]: much fewer and/or weaker-staining
cell viability (OD490) (IMR-32 cells): small, but significant increase
expression of Foxp2, Drd1a, Tac1, Sez6, Penk, Dlx5, Rarb, Meis, Ddx5, Gpr88, Pde10a, Isl1 and Akap5 by QRT-PCR [3]: significantly elevated
expression of Zic1, Zic2, Zic3, Zic4 and Zic5 by QRT-PCR [3]: significantly elevated
reduction of FA-soluble Aβ1-42 levels in the brains (insoluble Aβ1-42): about 30%
